ChEMBL document CHEMBL1135760, “Anilinoquinazoline inhibitors of fructose 1,6-bisphosphatase bind at a novel allosteric site: synthesis, in vitro characterization, and X-ray crystallography” (J Med Chem, 2002)

What was measured:
[1] = Inhibition of human recombinant wild type fructose-1,6-bisphosphatase (F16BP)
[2] = target: T1, Epidermal growth factor receptor (Homo sapiens, UniProt P00533); test: (§1) Inhibition of (EGFR) epidermal growth factor receptor tyrosine kinase
[3] = target: T1, Epidermal growth factor receptor; test: as §1; conditions: concentration not given here

T1 sequence (P00533 whole entry): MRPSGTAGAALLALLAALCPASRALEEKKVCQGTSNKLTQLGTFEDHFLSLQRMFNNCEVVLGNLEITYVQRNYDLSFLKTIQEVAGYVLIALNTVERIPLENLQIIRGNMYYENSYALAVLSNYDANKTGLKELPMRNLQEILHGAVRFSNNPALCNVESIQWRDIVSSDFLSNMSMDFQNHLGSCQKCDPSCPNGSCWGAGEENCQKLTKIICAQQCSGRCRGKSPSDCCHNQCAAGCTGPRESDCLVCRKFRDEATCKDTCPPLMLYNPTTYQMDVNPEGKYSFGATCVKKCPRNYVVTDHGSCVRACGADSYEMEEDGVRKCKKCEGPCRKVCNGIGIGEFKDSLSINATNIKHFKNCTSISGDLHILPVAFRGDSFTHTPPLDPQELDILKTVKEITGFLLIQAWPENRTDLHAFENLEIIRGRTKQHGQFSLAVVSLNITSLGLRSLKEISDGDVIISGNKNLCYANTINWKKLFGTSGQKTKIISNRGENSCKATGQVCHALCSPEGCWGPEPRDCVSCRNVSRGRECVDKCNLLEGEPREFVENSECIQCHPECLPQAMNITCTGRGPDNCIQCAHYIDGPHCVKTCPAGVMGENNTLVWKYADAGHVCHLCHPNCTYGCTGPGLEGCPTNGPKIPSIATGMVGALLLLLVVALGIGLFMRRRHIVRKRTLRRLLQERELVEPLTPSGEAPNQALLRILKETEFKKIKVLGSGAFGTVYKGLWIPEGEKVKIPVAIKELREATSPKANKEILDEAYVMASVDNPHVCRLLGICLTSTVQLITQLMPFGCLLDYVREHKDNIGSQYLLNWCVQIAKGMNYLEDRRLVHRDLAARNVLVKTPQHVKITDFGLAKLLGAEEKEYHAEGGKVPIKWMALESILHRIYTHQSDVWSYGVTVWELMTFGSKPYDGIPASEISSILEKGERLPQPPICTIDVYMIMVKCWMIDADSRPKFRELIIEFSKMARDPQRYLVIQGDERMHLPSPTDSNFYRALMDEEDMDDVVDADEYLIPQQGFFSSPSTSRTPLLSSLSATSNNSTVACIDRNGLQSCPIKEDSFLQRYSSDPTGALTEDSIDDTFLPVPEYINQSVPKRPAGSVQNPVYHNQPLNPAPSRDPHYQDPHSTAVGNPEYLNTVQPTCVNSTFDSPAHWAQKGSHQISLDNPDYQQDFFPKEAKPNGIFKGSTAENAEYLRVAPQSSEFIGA

## CCOc1cc2ncnc(Nc3cc(-c4csc(C)n4)ccc3CC)c2cc1OCC
[1]
  IC50: 2100 nM

## CCOc1cc2ncnc(Nc3cccc(-c4csc(NN)n4)c3)c2cc1OCC
[1]
  IC50: 4500 nM

## CCOc1cc2nc(C)nc(Nc3cccc(-c4csc(C)n4)c3)c2cc1OCC
[1]
  IC50: 1000 nM
[2]
  IC50: 9000 nM

## CCOc1cc2ncnc(Nc3cccc(-c4cnc(C)o4)c3)c2cc1OCC
[1]
  IC50: 4000 nM
[2]
  IC50: > 10000 nM

## CCC(C)Oc1cc2ncnc(Nc3cccc(-c4csc(C)n4)c3)c2cc1OC (centres undefined)
[1]
  IC50: 1300 nM

## CCOc1cc2ncnc(Nc3ccc(F)c(-c4csc(C)n4)c3F)c2cc1OCC
[1]
  IC50: > 10000 nM

## Cc1nc(-c2cccc(Nc3ncnc4cc5c(cc34)OCCO5)c2)cs1
[1]
  IC50: > 10000 nM

## CCOc1cc2nc(Cn3ccnc3)nc(Nc3cccc(-c4csc(C)n4)c3)c2cc1OCC
[1]
  IC50: 770 nM

## CCOc1cc2ncnc(Nc3cccc(-c4csc(-c5ccccc5)n4)c3)c2cc1OCC
[1]
  IC50: > 10000 nM

## CCOc1cc2nc(CS(C)(=O)=O)nc(Nc3cccc(-c4csc(C)n4)c3)c2cc1OCC
[1]
  IC50: 2100 nM

## CCOc1cc2ncnc(Nc3cccc(-c4csc(NC)n4)c3)c2cc1OCC
[1]
  IC50: 800 nM

## CCOc1cc2ncnc(Nc3cccc(-c4csc(Cc5ccccc5)n4)c3)c2cc1OCC
[1]
  IC50: > 10000 nM

## CCOc1nc(-c2cccc(Nc3ncnc4cc(OCC)c(OCC)cc34)c2)cs1
[1]
  IC50: 6100 nM

## CCCOc1cc2ncnc(Nc3cccc(-c4csc(C)n4)c3)c2cc1OCC
[1]
  IC50: 1000 nM

## CCOc1cc2ncnc(Nc3cc(-c4csc(C)n4)ccc3F)c2cc1OCC
[1]
  IC50: 480 nM

## CCOc1cc2ncnc(Nc3cccc(-c4ccco4)c3)c2cc1OCC
[1]
  IC50: 1400 nM
[2]
  IC50: 3 nM

## CCOc1cc2ncnc(Nc3cccc(-c4csc(C(=O)O)n4)c3)c2cc1OCC
[1]
  IC50: > 10000 nM

## CCOc1cc2nc(CS(C)(=O)=O)nc(Nc3cccc(Br)c3)c2cc1OCC
[1]
  IC50: > 10000 nM

## CCOc1cc2ncnc(Nc3cccc(-c4cncs4)c3)c2cc1OCC
[1]
  IC50: 980 nM
[2]
  IC50: 11 nM

## CCOc1cc2nc(COC)nc(Nc3cccc(-c4csc(C)n4)c3)c2cc1OCC
[1]
  IC50: 1400 nM

## CCOc1cc2nc(CC(C)C)nc(Nc3cccc(-c4csc(C)n4)c3)c2cc1OCC
[1]
  IC50: 1700 nM

## CCOc1cc2nc(Cl)nc(Nc3cccc(-c4csc(C)n4)c3)c2cc1OCC
[1]
  IC50: 2600 nM

## CCOc1cc2ncnc(Nc3cccc(-c4cocn4)c3)c2cc1OCC
[1]
  IC50: 3600 nM
[2]
  IC50: 720 nM

## CCOc1cc2ncnc(Nc3cccc(-c4ccccc4C)c3)c2cc1OCC
[1]
  IC50: > 10000 nM

## CCOc1cc2nc(CN(C)C)nc(Nc3cccc(-c4csc(C(N)=O)n4)c3)c2cc1OCC
[1]
  IC50: 2400 nM

## COc1cc2c(Nc3cccc(-c4csc(C)n4)c3)ncnc2cc1OCC(C)C
[1]
  IC50: > 10000 nM

## CCOc1cc2nc(CN)nc(Nc3cccc(-c4csc(C)n4)c3)c2cc1OCC
[1]
  IC50: 1500 nM

## CCOc1cc2nc(CCCl)nc(Nc3cccc(-c4csc(C)n4)c3)c2cc1OCC
[1]
  IC50: 1000 nM
[3]
  inhibition: 11%

## CCOc1cc2ncnc(Nc3cccc(C(=O)CBr)c3)c2cc1OCC
[1]
  IC50: > 10000 nM

## CCOc1cc2nc(C(C)C)nc(Nc3cccc(-c4csc(C)n4)c3)c2cc1OCC
[1]
  IC50: 5000 nM

## CCCOc1cc2ncnc(Nc3cccc(-c4csc(C)n4)c3)c2cc1OC
[1]
  IC50: 5600 nM

## CCOc1cc2ncnc(Nc3cccc(-c4cccc(C)c4)c3)c2cc1OCC
[1]
  IC50: > 10000 nM

## CCOc1cc2ncnc(Nc3cccc(-c4csc(C5CC5)n4)c3)c2cc1OCC
[1]
  IC50: 830 nM

## CCOc1ccc(-c2csc(C)n2)cc1Nc1ncnc2cc(OCC)c(OCC)cc12
[1]
  IC50: 1800 nM

## CCOc1cc2ncnc(Nc3cccc(-c4cc[nH]n4)c3)c2cc1OCC
[1]
  IC50: 730 nM
[2]
  IC50: 11 nM

## CCOc1cc2ncnc(Nc3cccc(-c4cccnc4)c3)c2cc1OCC
[1]
  IC50: 1400 nM

## CCOc1cc2nc(CC(=O)O)nc(Nc3cccc(-c4csc(C)n4)c3)c2cc1OCC
[1]
  IC50: 960 nM

## Cc1nc(-c2cccc(Nc3ncnc4cc5ccccc5cc34)c2)cs1
[1]
  IC50: > 10000 nM

## CCOc1cc2nc(Cc3ccccc3)nc(Nc3cccc(-c4csc(C)n4)c3)c2cc1OCC
[1]
  IC50: > 10000 nM

## CCCCOc1cc2ncnc(Nc3cccc(-c4csc(C)n4)c3)c2cc1OC
[1]
  IC50: > 10000 nM

## COc1cc2c(Nc3cccc(-c4csc(C)n4)c3)ncnc2cc1OC1CCCC1
[1]
  IC50: > 10000 nM

## CCOc1cc2ncnc(Nc3cc(-c4csc(C)n4)cc(C(F)(F)F)c3)c2cc1OCC
[1]
  IC50: > 10000 nM

## CCOc1cc2ncnc(Nc3cccc(-c4nc[nH]n4)c3)c2cc1OCC
[1]
  IC50: 640 nM
[2]
  IC50: 390 nM

## CCCCOc1cc2c(Nc3cccc(-c4csc(C)n4)c3)ncnc2cc1OC
[1]
  IC50: > 10000 nM

## CCOc1cc2ncnc(Nc3cccc(-c4ccccn4)c3)c2cc1OCC
[1]
  IC50: 390 nM

## CCOc1cc2ncnc(Nc3cccc(-c4csc(COC)n4)c3)c2cc1OCC
[1]
  IC50: 7300 nM

## CCOc1cc2c(Nc3cccc(-c4csc(C)n4)c3)ncnc2cc1OC
[1]
  IC50: 1200 nM

## CCOc1cc2ncnc(Nc3cccc(C(C)=O)c3)c2cc1OCC
[1]
  IC50: > 10000 nM

## COc1cc2ncnc(Nc3cccc(-c4csc(C)n4)c3)c2cc1OC
[1]
  IC50: 4400 nM

## CCOc1cc2ncnc(Nc3cccc(-c4csc(OC)n4)c3)c2cc1OCC
[1]
  IC50: 780 nM

## CCOc1cc2ncnc(Nc3cccc(-c4csc(C)n4)c3)c2cc1OC
[1]
  IC50: 3400 nM

## CCOc1cc2nc(C(F)(F)F)nc(Nc3cccc(-c4csc(C)n4)c3)c2cc1OCC
[1]
  IC50: > 10000 nM

## CCCc1nc(Nc2cccc(-c3csc(C)n3)c2)c2cc(OCC)c(OCC)cc2n1
[1]
  IC50: 1400 nM

## CCOc1cc2ncnc(Nc3ccc(Cl)c(-c4csc(C)n4)c3)c2cc1OCC
[1]
  IC50: 5300 nM

## CCOc1cc2nc(CN(C)C)nc(Nc3cccc(-c4csc(C)n4)c3)c2cc1OCC
[1]
  IC50: 2000 nM

## COCCOc1cc2c(Nc3cccc(-c4csc(C)n4)c3)ncnc2cc1OC
[1]
  IC50: > 10000 nM

## CCOc1cc2ncnc(Nc3cc(-c4csc(C)n4)ccc3Br)c2cc1OCC
[1]
  IC50: > 10000 nM

## CCOc1cc2ncnc(Nc3cccc(-c4ccccc4)c3)c2cc1OCC
[1]
  IC50: > 10000 nM

## CCOc1cc2ncnc(Nc3cc(-c4csc(C)n4)c(F)cc3F)c2cc1OCC
[1]
  IC50: > 10000 nM

## C#Cc1cc(Nc2ncnc3cc(OC)c(OC)cc23)ccc1F
[1]
  IC50: 250 nM
[2]
  IC50: 4 nM

## CCOc1cc2ncnc(Nc3cccc(-c4csc(N)n4)c3)c2cc1OCC
[1]
  IC50: 3500 nM
[2]
  IC50: 560 nM

## CCCc1nc(-c2cccc(Nc3ncnc4cc(OCC)c(OCC)cc34)c2)cs1
[1]
  IC50: > 10000 nM

## CCNCc1nc(Nc2cccc(-c3csc(C)n3)c2)c2cc(OCC)c(OCC)cc2n1
[1]
  IC50: 6000 nM

## CCOc1cc2ncnc(Nc3cccc(-c4ccc(C)cc4)c3)c2cc1OCC
[1]
  IC50: > 10000 nM

## CCOc1cc2ncnc(Nc3cc(-c4csc(C)n4)ccc3OC)c2cc1OCC
[1]
  IC50: 990 nM

## CCOc1cc2nc(CCl)nc(Nc3cccc(-c4csc(C)n4)c3)c2cc1OCC
[1]
  IC50: 870 nM
[3]
  inhibition: 10%

## CCOc1cc2ncnc(Nc3cc(-c4csc(C)n4)ccc3Cl)c2cc1OCC
[1]
  IC50: 1700 nM

## CCOc1cc2ncnc(Nc3cc(-c4csc(C)n4)ccc3C)c2cc1OCC
[1]
  IC50: 1800 nM

## COc1cc2c(Nc3cccc(-c4csc(C)n4)c3)ncnc2cc1OC(C)C
[1]
  IC50: 2300 nM

## CCOc1cc2nc(CC)nc(Nc3cccc(-c4csc(C)n4)c3)c2cc1OCC
[1]
  IC50: 1500 nM
[2]
  IC50: 9300 nM

## COc1cc2ncnc(Nc3cccc(-c4csc(C)n4)c3)c2cc1OC(C)C
[1]
  IC50: > 10000 nM

## Cc1nc(-c2cccc(Nc3ncnc4ccccc34)c2)cs1
[1]
  IC50: > 10000 nM

## CCOc1cc2ncnc(Nc3cccc(-c4coc(C)n4)c3)c2cc1OCC
[1]
  IC50: 500 nM

## CCOc1cc2ncnc(Nc3cccc(-c4csc(N(C)C)n4)c3)c2cc1OCC
[1]
  IC50: 8000 nM

## CCOc1cc2ncnc(Nc3cccc(-c4nccs4)c3)c2cc1OCC
[1]
  IC50: 380 nM
[2]
  IC50: 2 nM

## CCOc1cc2c(Nc3cccc(-c4csc(C)n4)c3)ncnc2c(OCC)c1OCC
[1]
  IC50: > 10000 nM

## CCOc1cc2ncnc(Nc3cccc(-c4cscn4)c3)c2cc1OCC
[1]
  IC50: 390 nM
[2]
  IC50: 18 nM

## CCOc1cc2ncnc(Nc3cccc(-c4nc(C(N)=O)cs4)c3)c2cc1OCC
[1]
  IC50: 830 nM

## CCOc1cc2nc(CCCCl)nc(Nc3cccc(-c4csc(C)n4)c3)c2cc1OCC
[1]
  IC50: 4100 nM
[3]
  inhibition: 31%

## CCOc1cc2nc(CCl)nc(Nc3cccc(Br)c3)c2cc1OCC
[1]
  IC50: > 10000 nM

## COCCOc1cc2ncnc(Nc3cccc(-c4csc(C)n4)c3)c2cc1OC
[1]
  IC50: > 10000 nM

## CCOc1cc2ncnc(Nc3cccc(-c4cncnc4)c3)c2cc1OCC
[1]
  IC50: 1200 nM
[2]
  IC50: 1100 nM

## CCOc1cc2nc(CC(C)C)nc(Nc3cccc(Br)c3)c2cc1OCC
[1]
  IC50: > 10000 nM

## CCOc1cc2ncnc(Nc3ccc(F)c(-c4csc(C)n4)c3)c2cc1OCC
[1]
  IC50: 610 nM

## CCOc1cc2ncnc(Nc3cccc(-c4nc(C)cs4)c3)c2cc1OCC
[1]
  IC50: 650 nM

## CCOc1cc2nc(CN3CCCC3)nc(Nc3cccc(-c4csc(C)n4)c3)c2cc1OCC
[1]
  IC50: 6100 nM

## CCOc1cc2c(Nc3cccc(-c4csc(C)n4)c3)ncnc2cc1OC(C)C
[1]
  IC50: 420 nM

## CCOc1cc2nc(CCN)nc(Nc3cccc(-c4csc(C)n4)c3)c2cc1OCC
[1]
  IC50: 220 nM
